Laboratory results reported in patent publication US20180099931A1 (AbbVie S.à.r.l., priority 2016, published 2018).
Where two headings read alike, the source gives them in different places.

Target: T1, F508delCFTR (Homo sapiens, UniProt P13569, DEL508-508)
T1 construct: expressed in transfected cells; host or cells: CFBE41o- human lung-derived epithelial cells (CFBE4lo-F508delCFTR-HRP), doxycycline-inducible
Assay: Cell Surface Expression-Horse Radish Peroxidase (CSE-HRP) Assay;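 as to Maximum % activity (with co-corrector): co-corrector and positive control are both the same reference corrector at 2 µM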;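 as to Maximum % activity (without co-corrector): percent of the 2 µM on-plate positive control corrector response above DMSO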
Format: cell-based
Settings: for Maximum % activity (with co-corrector) / Emax: maximum at any tested concentration, normalized to on-plate positive control; for Emax: read-out: Maximum % activity (without co-corrector)

[1] = test compound without co-corrector, read-out: EC50 (without co-corrector)
[2] = with co-corrector (2 μM of 3-[(2R,4R)-4-({[1-(2,2-difluoro-1,3-benzodioxol-5-yl)cyclopropyl]carbonyl}amino)-7-methoxy-3,4-dihydro-2H-chromen-2-yl]benzoic acid), read-out: EC50 (with co-corrector)
[3] = test compound without co-corrector
[4] = with co-corrector (2 μM of 3-[(2R,4R)-4-({[1-(2,2-difluoro-1,3-benzodioxol-5-yl)cyclopropyl]carbonyl}amino)-7-methoxy-3,4-dihydro-2H-chromen-2-yl]benzoic acid)
[5] = CSE-HRP, test compound without co-corrector, read-out: EC50 (without co-corrector)
[6] = CSE-HRP, with co-corrector (2 μM of 3-[(2R,4R)-4-({[1-(2,2-difluoro-1,3-benzodioxol-5-yl)cyclopropyl]carbonyl}amino)-7-methoxy-3,4-dihydro-2H-chromen-2-yl]benzoic acid), read-out: EC50 (with co-corrector)
[7] = CSE-HRP, with co-corrector (2 μM)

T1 sequence (P13569 with tags, fused parts or gaps DEL508-508): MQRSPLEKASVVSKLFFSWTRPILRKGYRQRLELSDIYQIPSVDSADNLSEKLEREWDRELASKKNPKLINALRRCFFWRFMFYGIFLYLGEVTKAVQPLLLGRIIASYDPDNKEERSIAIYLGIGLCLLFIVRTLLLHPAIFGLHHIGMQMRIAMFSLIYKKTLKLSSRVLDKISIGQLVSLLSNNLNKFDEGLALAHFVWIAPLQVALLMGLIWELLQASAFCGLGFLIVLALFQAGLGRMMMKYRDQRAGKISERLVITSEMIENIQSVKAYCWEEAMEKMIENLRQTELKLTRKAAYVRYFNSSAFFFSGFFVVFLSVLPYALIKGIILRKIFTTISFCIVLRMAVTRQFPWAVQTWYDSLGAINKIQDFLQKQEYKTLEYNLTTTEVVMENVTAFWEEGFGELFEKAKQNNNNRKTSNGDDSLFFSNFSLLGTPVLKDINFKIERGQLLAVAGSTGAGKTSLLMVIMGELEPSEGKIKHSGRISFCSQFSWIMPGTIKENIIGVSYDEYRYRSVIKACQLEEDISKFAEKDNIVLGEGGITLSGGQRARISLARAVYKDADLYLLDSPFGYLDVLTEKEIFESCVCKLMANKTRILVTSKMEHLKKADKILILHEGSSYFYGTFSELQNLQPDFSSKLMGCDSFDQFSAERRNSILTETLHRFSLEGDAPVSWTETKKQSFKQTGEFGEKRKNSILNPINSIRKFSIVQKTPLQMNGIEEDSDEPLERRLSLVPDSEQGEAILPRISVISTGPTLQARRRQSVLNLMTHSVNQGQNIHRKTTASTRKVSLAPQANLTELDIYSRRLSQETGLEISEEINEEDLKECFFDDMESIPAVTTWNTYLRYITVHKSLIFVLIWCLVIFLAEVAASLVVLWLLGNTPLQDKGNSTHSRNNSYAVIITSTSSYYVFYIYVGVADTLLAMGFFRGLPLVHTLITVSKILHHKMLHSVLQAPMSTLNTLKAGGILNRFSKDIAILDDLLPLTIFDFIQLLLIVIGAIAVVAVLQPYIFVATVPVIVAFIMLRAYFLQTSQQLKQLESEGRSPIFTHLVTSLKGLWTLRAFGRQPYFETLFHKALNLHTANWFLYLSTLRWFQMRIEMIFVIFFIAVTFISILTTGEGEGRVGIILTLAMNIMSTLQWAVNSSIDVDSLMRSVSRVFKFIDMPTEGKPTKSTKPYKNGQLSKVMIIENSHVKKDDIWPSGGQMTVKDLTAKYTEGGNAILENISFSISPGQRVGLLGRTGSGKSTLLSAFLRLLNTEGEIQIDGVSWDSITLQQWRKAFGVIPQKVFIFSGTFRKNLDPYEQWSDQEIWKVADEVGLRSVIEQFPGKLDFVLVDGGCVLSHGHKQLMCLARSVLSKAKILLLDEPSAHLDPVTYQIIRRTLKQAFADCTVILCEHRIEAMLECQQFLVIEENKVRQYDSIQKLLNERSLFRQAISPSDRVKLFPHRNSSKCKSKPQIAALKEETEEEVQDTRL

| Compound | EC50 [1] | EC50 [2] | Maximum % activity (with co-corrector) (with co-corrector (2 μM)) | Emax (without co-corrector) | Emax [3] | Maximum % activity (with co-corrector) [4] | EC50 [5] | EC50 [6] | Maximum % activity (with co-corrector) [7] | Emax (CSE-HRP, without co-corrector) |
| --- | --- | --- | --- | --- | --- | --- | --- | --- | --- | --- |
| COc1ccc(C2(C(F)(F)F)CC2)cc1CN[C@H]1[C@H](C(C)(C)C)[C@@H](C(=O)O)N(C(=O)[C@@H]2CCCCO2)[C@H]1c1cccnc1N(C)C [Example I-176] | 1000 to 10000 nM | 1000 to 10000 nM | +++ (≥350) | > 200% |  |  |  |  |  |  |
| O=C(O)[C@@H]1N(C(=O)C2CCCCC2)[C@H](c2ccccc2)[C@H](NCc2ccccc2OC(F)F)C12CC2 (racemic) [III-57] | > 10000 nM | 1000 to 10000 nM |  |  | < 100% | ++ (≥150 and <350) |  |  |  |  |
| COc1ccc(C(C)(C)C)cc1CN[C@H]1[C@H](C(C)(C)C)[C@@H](C(=O)O)N(C(=O)[C@H](C)c2ccccc2)[C@H]1c1ccccc1 [II-315] |  |  |  |  |  |  | < 1000 nM | < 1000 nM | +++ (≥350) | > 200% |
| COc1ccc(C(C)(C)C)cc1CN[C@H]1[C@H](C(C)(C)C)[C@@H](C(=O)O)N(C(=O)Cc2ccc(F)c(F)c2)[C@H]1c1ccccc1 [III-172] | 1000 to 10000 nM | < 1000 nM | +++ (≥350) |  | 100 to 200% |  |  |  |  |  |
| COc1ccc(C(C)(C)C)cc1CN[C@H]1[C@H](C(C)(C)C)[C@@H](C(=O)O)N(C(=O)c2cnn(-c3ccc(F)cc3F)c2C)[C@H]1c1ccccc1 [II-356] | 1000 to 10000 nM | < 1000 nM |  |  | > 200% | +++ (≥350) |  |  |  |  |
| COc1ccc(C(C)(C)C)cc1CN[C@H]1[C@H](C(C)(C)C)[C@@H](C(=O)O)N(C(=O)c2ccc3c(c2)OCCO3)[C@H]1c1cccnc1N(C)C [Example I-199] | 1000 to 10000 nM | 1000 to 10000 nM | +++ (≥350) | 100 to 200% |  |  |  |  |  |  |
| COc1ccc(C(C)(C)C)cc1CN[C@H]1[C@H](C(C)(C)C)[C@@H](C(=O)O)N(C(=O)C2CCc3ccccc3O2)[C@H]1c1cccnc1N(C)C (single isomer, unassigned) [Example 43, (2S,3S,4S,5S)-3-tert-butyl-4-{[(5-tert-butyl-2-methoxyphenyl)methyl]amino}-1-[(2S*)-3,4-dihydro-2H-1-benzopyran-2-carbonyl]-5-[2-(dimethylamino)pyridin-3-yl]pyrrolidine-2-carboxylic acid] | 1000 to 10000 nM | < 1000 nM | +++ (≥350) | 100 to 200% |  |  |  |  |  |  |
| COc1cc(C(F)(F)F)ccc1CN[C@H]1[C@H](C(C)(C)C)[C@@H](C(=O)O)N(C(=O)[C@@H]2CCCCO2)[C@H]1c1cccc2c1OCC2 [Example I-300] |  |  |  |  |  |  | 1000 to 10000 nM | 1000 to 10000 nM | +++ (≥350) | > 200% |
| COc1ccc(C(C)(C)C)cc1CN[C@H]1[C@H](C(C)(C)C)[C@@H](C(=O)O)N(C(=O)Cc2ccc(F)cc2)[C@H]1c1ccccc1 [II-181] |  |  |  |  |  |  | 1000 to 10000 nM | 1000 to 10000 nM | +++ (≥350) | 100 to 200% |
| COc1cc2ccccc2cc1CN[C@@H]1[C@H](C(C)(C)C)[C@@H](C(=O)O)N(C(=O)OC(C)C)[C@H]1c1ccccc1 [II-554] | 1000 to 10000 nM | 1000 to 10000 nM |  |  | 100 to 200% | +++ (≥350) |  |  |  |  |
| COc1ccc(C(C)(C)C)cc1CN[C@H]1[C@H](C(C)(C)C)[C@@H](C(=O)O)N(C(=O)c2cccc(Cn3cncn3)c2)[C@H]1c1ccccc1 [II-225] |  |  |  |  |  |  | 1000 to 10000 nM | 1000 to 10000 nM | +++ (≥350) | 100 to 200% |
| COc1ccc(C(C)(C)C)cc1CN[C@@H]1[C@@H](C(C)(C)C)[C@@H](C(=O)O)N(C(=O)[C@H](OC)c2ccccc2)[C@H]1c1ccccc1 [II-393] | 1000 to 10000 nM | 1000 to 10000 nM |  |  | < 100% | ++ (≥150 and <350) |  |  |  |  |
| COc1ccc(C(C)(C)C)cc1CN[C@H]1[C@H](C(C)(C)C)[C@@H](C(=O)O)N(C(=O)[C@@H]2OCC[C@@H]2c2ccccc2)[C@H]1c1ccccc1 (relative stereo) [Example I-178] | 1000 to 10000 nM | 1000 to 10000 nM | +++ (≥350) | 100 to 200% |  |  |  |  |  |  |
| COc1ccc(C(C)(C)C)cc1CN[C@H]1[C@H](C23CC(C2)C3)[C@@H](C(=O)O)N(C(=O)OC(C)C)[C@H]1c1cccnc1N(C)C [Example 71, (2S,3S,4S,5S)-3-(bicyclo[1.1.1]pentan-1-yl)-4-{[(5-tert-butyl-2-methoxyphenyl)methyl]amino}-5-[2-(dimethylamino)pyridin-3-yl]-1-{[(propan-2-yl)oxy]carbonyl}pyrrolidine-2-carboxylic acid] | 1000 to 10000 nM | 1000 to 10000 nM | +++ (≥350) | > 200% |  |  |  |  |  |  |
| COc1ccc(Cl)cc1CN[C@@H]1[C@@H](C(C)(C)C)[C@H](C(=O)O)N(C(=O)OC(C)C)[C@@H]1c1ccccc1 (racemic) [Example I-12] | 1000 to 10000 nM | 1000 to 10000 nM | +++ (≥350) | > 200% |  |  |  |  |  |  |
| COc1ccc(C(C)(C)C)cc1CN[C@H]1[C@H](C(C)(C)C)[C@@H](C(=O)O)N(C(=O)[C@@H](Cc2ccccc2)OC)[C@H]1c1ccccc1 [Example 32, (2S,3S,4S,5S)-3-tert-butyl-4-{[(5-tert-butyl-2-methoxyphenyl)methyl]amino}-1-[(2R)-2-methoxy-3-phenylpropanoyl]-5-phenylpyrrolidine-2-carboxylic acid] | 1000 to 10000 nM | < 1000 nM | +++ (≥350) | > 200% |  |  |  |  |  |  |
| COc1ccc(C(C)(C)C)cc1CN[C@H]1[C@H](C(C)(C)C)[C@@H](C(=O)O)N(C(=O)[C@]2(C)CCc3c(OC)cccc32)[C@H]1c1ccccc1 [II-366] | 1000 to 10000 nM | 1000 to 10000 nM |  |  | 100 to 200% | +++ (≥350) |  |  |  |  |
| COc1ncc(C(F)(F)F)cc1N[C@H]1[C@H](C(C)(C)C)[C@@H](C(=O)O)N(C(=O)[C@@H]2CCCC[C@H]2C(F)(F)F)[C@H]1c1cccnc1N(C)C [II-485] | 1000 to 10000 nM | 1000 to 10000 nM |  |  | < 100% | ++ (≥150 and <350) |  |  |  |  |
| Cc1cc(C(F)(F)F)cc(N[C@@H]2[C@@H](C(C)(C)C)[C@H](C(=O)O)N(C(=O)OC(C)C)[C@@H]2c2cccnc2N(C)C)n1 (racemic) [III-93] | 1000 to 10000 nM | 1000 to 10000 nM |  |  | < 100% | ++ (≥150 and <350) |  |  |  |  |

Continued, values first:

| EC50 [1] | EC50 [2] | Maximum % activity (with co-corrector) (with co-corrector (2 μM)) | Emax (without co-corrector) | Emax [3] | Maximum % activity (with co-corrector) [4] | EC50 [5] | EC50 [6] | Maximum % activity (with co-corrector) [7] | Emax (CSE-HRP, without co-corrector) | Compound |
| --- | --- | --- | --- | --- | --- | --- | --- | --- | --- | --- |
| 1000 to 10000 nM | 1000 to 10000 nM | ++ (≥150 and <350) |  | < 100% |  |  |  |  |  | COc1cc(Cl)cnc1N[C@@H]1[C@@H](C(C)(C)OC)[C@H](C(=O)O)N(C(=O)C2CCCCC2)[C@@H]1c1ccccc1 (racemic) [III-111] |
| < 1000 nM | < 1000 nM | +++ (≥350) | 100 to 200% |  |  |  |  |  |  | COc1ncc(C(C)c2ccccc2)cc1CN[C@H]1[C@H](C(C)(C)C)[C@@H](C(=O)O)N(C(=O)C2CCCCC2)[C@H]1c1ccccc1 (stereo partly shown) [Example I-75] |
| 1000 to 10000 nM | 1000 to 10000 nM | ++ (≥150 and <350) |  | < 100% |  |  |  |  |  | Cc1ccc(CN[C@H]2[C@H](C(C)(C)C)[C@@H](C(=O)O)N(C(=O)C3CCCCC3)[C@H]2c2ccccc2)cc1C [III-134] |
|  |  |  |  |  |  | 1000 to 10000 nM | 1000 to 10000 nM | +++ (≥350) | < 100% | COc1cc(C#N)ccc1CN[C@@H]1[C@@H](C(C)(C)C)[C@H](C(=O)O)N(C(=O)C2CCCCC2)[C@@H]1c1ccccc1 (racemic) [II-74] |
|  |  |  |  |  |  | 1000 to 10000 nM | < 1000 nM | +++ (≥350) | > 200% | COc1ccc(C(C)(C)C)cc1CN[C@H]1[C@H](C2(C)CC2)[C@@H](C(=O)O)N(C(=O)C2CCCCC2)[C@H]1c1ccccc1 [II-302] |
| 1000 to 10000 nM | 1000 to 10000 nM |  |  | 100 to 200% | +++ (≥350) |  |  |  |  | COc1ccc(C(C)(C)C)cc1CN[C@H]1[C@H](C(C)(C)C)[C@@H](C(=O)O)N(C(=O)c2c(C)nn3c2CCCC3)[C@H]1c1ccccc1 [II-363] |
| < 1000 nM | < 1000 nM | +++ (≥350) | > 200% |  |  |  |  |  |  | COc1ccc(C(C)(C)C)cc1CN[C@H]1[C@H](C(C)(C)C)[C@@H](C(=O)O)N(C(=O)C(OC)C2CCCCC2)[C@H]1c1ccccc1 (stereo partly shown) [Example I-160] |
|  |  |  |  |  |  | 1000 to 10000 nM | 1000 to 10000 nM | +++ (≥350) | > 200% | COc1ccc(C(C)(C)C)cc1CN[C@@H]1[C@@H](C(C)(C)C)[C@H](C(=O)O)N(C(=O)OC2CCC2)[C@@H]1c1ccccc1 (racemic) [II-90] |
| < 1000 nM | < 1000 nM | +++ (≥350) | 100 to 200% |  |  |  |  |  |  | COc1nc(C(C)(C)C)ccc1CN[C@H]1[C@H](C(C)(C)C)[C@@H](C(=O)O)N(C(=O)C2CCCCC2)[C@H]1c1ccccc1 [Example 29, (2S,3S,4S,5S)-3-tert-butyl-4-{[(6-tert-butyl-2-methoxypyridin-3-yl)methyl]amino}-1-(cyclohexanecarbonyl)-5-phenylpyrrolidine-2-carboxylic acid] |
